Assay results published in PMC8219695 (Nature Communications, 2021).
Where “and” joins values, the source holds several entries; their conditions need not be identical. Equal entries are not always repeated.

Key:
mMOR [1] = molecular target: T1, mMOR (Mus musculus, UniProt P42866); assay: CAMYEL BRET antagonism assay at mMOR (inhibition of DAMGO); type: cell-based; details: Log[drug] (M) -11; source data of Fig 8a and Table 5; listed as C11-F-7OH (22);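 note: BRET signal rises as cAMP falls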
T1 construct: signal peptide (heterologous, not specified) (N); expressed in transfected cells; pcDNA3.1(+) construct made in house
T1 sequence (P42866 whole entry): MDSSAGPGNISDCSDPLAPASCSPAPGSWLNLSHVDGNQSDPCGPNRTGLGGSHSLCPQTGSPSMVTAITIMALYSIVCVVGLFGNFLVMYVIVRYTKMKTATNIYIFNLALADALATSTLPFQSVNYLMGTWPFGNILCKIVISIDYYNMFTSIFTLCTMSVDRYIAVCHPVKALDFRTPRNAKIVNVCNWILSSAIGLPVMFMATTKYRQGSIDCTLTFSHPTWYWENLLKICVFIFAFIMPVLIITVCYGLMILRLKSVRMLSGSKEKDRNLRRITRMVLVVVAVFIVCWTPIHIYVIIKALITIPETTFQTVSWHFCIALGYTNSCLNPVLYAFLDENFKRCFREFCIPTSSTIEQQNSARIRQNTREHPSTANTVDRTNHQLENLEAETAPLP

hKOR = hKOR (Homo sapiens, UniProt P41145); assay: CAMYEL BRET cAMP agonist assay at hKOR; type: cell-based; details: individual replicates, Supplementary Figure 8A source data
Sequence of hKOR (P41145 whole entry): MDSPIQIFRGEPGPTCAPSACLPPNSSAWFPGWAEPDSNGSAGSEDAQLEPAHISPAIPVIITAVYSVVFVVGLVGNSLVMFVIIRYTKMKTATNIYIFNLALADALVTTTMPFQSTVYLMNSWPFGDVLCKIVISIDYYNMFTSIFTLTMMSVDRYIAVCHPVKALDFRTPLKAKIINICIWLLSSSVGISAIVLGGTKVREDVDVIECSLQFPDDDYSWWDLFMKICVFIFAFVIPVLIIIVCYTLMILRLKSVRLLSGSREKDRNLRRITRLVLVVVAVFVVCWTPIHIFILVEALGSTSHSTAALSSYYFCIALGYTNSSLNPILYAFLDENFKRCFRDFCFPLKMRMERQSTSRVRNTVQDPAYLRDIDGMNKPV

mMOR [2] = molecular target: T1, mMOR; assay: [125I]BNtxA radioligand competition binding, mouse MOR; details: mean ± SEM, n = 3; [125I]BNtxA; read-out: Ki ± SEM mMOR
mDOR = molecular target: T2, mDOR (Mus musculus, UniProt P32300); assay: CAMYEL BRET cAMP agonist assay at mDOR; type: cell-based; details: for Agonist activity of 7OH analogs at mDOR: single replicate values, Supplementary Figure 7B
T2 construct: expressed in transfected cells
T2 sequence (P32300 whole entry): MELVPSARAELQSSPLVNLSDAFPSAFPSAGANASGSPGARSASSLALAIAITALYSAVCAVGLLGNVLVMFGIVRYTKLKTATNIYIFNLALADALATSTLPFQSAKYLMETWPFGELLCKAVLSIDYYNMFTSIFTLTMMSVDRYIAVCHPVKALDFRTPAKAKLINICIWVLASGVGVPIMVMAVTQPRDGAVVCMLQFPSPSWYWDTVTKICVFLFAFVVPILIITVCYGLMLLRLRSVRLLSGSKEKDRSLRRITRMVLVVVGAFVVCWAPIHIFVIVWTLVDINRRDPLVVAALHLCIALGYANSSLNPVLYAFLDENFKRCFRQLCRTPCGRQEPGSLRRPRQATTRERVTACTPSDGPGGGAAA

CD1 mice = assay: Tail-flick antinociception in CD1 mice; type: in vivo, mouse; details: for Tail flick (%MPE), average / Tail flick latency in secs, Av / Tail flick (%MPE) / Tail flick latency / Tail flick latency in secs, mean: sc; for Tail flick (%MPE), average / Tail flick latency in secs, Av: average of 11 animals; for Tail flick (%MPE) / Tail flick latency: individual animals; for Tail flick latency in secs, mean: mean of 8 animals

CC[C@@H]1CN2CC[C@@]3(O)C(=Nc4cc(F)cc(OC)c43)[C@@H]2C[C@@H]1/C(=C\OC)C(=O)OC [11-F-7OH (22), 11-Fluoro-7-hydroxymitragynine]
Antagonist activity at mMOR, raw signal (single replicate values) (mMOR [1]): 0.2091 and 0.1929 and 0.2264 and 0.2001 and 0.2059 and 0.2094 and 0.1761 and 0.1779 and 0.1909
Agonist activity of 7OH analogs at hKOR (hKOR; Log [drug](M) -5): 12.7288 and 7.6957 and 5.691 and 5.203 and 10.1397 and 6.346 and 11.5584 and 16.2136 and 8.114
Agonist activity of 7OH analogs at hKOR (hKOR; Log [drug](M) -6): 4.1678 and -6.234 and -2.623 and -0.4626 and 5.449 and 14.973 and 13.878 and 7.062 and 8.9598
Agonist activity of 7OH analogs at hKOR (hKOR; Log [drug](M) -7): 15.7968 and 0.7988 and 22.403 and -2.445 and 4.302 and 10.7854 and 12.9808 and 8.955 and 17.6223
Agonist activity of 7OH analogs at hKOR (hKOR; Log [drug](M) -8): 4.851 and -3.884 and -5.474 and 6.013 and -0.3123 and 2.012 and 9.524 and 10.5291 and 12.8743
Agonist activity of 7OH analogs at hKOR (hKOR; Log [drug](M) -9): -6.272 and 9.969 and -14.9547 and 3.87 and -4.029 and 4.071 and 2.29 and -8.644 and 9.488
Agonist activity of 7OH analogs at hKOR (hKOR; Log [drug](M) -10): -8.62 and -13.3054 and -5.371 and -6.566 and 5.6803 and 0.6674 and -0.4006 and -4.716 and 0.9825
Agonist activity of 7OH analogs at hKOR (hKOR; Log [drug](M) -11): -18.0186 and -16.1556 and -9.7654 and -4.481 and 6.079 and -3.726 and -2.3334 and -2.856 and -4.795
Agonist activity of 7OH analogs at hKOR (hKOR; Log [drug](M) -13): 2.027 and -5.796 and 3.769 and 2.62 and 6.896 and -9.516 and -3.456 and 3.959 and -0.5033
Ki (mMOR [2]): 13.7 ± 1 nM
Agonist activity of 7OH analogs at mDOR (mDOR; Log[drug] (M) -5): 47.1654 and 47.1068 and 50.635 and 37.9412 and 42.0474 and 46.3733 and 28.2147 and 32.1025 and 39.5821
Agonist activity of 7OH analogs at mDOR (mDOR; Log[drug] (M) -6): 47.099 and 41.9872 and 38.3786 and 51.107 and 48.5979 and 35.3577 and 31.3142 and 12.8186 and 22.449
Agonist activity of 7OH analogs at mDOR (mDOR; Log[drug] (M) -7): 30.1688 and 32.9372 and 28.2956 and 32.0377 and 31.8373 and 22.4143 and 6.1677 and 13.5479 and 12.0733
Agonist activity of 7OH analogs at mDOR (mDOR; Log[drug] (M) -8): 13.6765 and -5.445 and -5.108 and 13.4452 and 4.719 and 1.33 and -3.9215 and 5.792
Agonist activity of 7OH analogs at mDOR (mDOR; Log[drug] (M) -9): -4.727 and 10.4426 and 11.2028 and 10.7963 and -1.115 and -6.036 and 3.188 and 1.136 and -3.325
Agonist activity of 7OH analogs at mDOR (mDOR; Log[drug] (M) -10): -4.225 and 3.531 and 0.6939 and 1.589 and -3.887 and 2.298 and 4.3674 and 7.155 and 10.722
Agonist activity of 7OH analogs at mDOR (mDOR; Log[drug] (M) -11): 12.0117 and 1.607 and 13.3008 and 5.9086 and 13.4698 and 3.259 and 9.679 and 6.216 and 9.4253
Agonist activity of 7OH analogs at mDOR (mDOR; Log[drug] (M) -13): -0.8332 and 15.6965 and -5.824 and 1.284 and 2.644 and 6.574 and -5.56 and 1.8034 and 3.757
EC50 (mDOR; mDOR cAMP BRET, read-out: EC50): 102 nM
Emax (mDOR; read-out: Emax): 41%
duration of residual analgesic effect (CD1 mice; 5 mg/kg s.c., CD1 mice): at least 120 min
time of peak analgesic effect post injection (CD1 mice; 5 mg/kg s.c., CD1 mice): 15 min
partial analgesic efficacy (CD1 mice; 5 mg/kg s.c., CD1 mice, tail-flick): < 40 % MPE
Tail flick (%MPE), average (CD1 mice; 5 mg/kg, 15 min): 38 %MPE
Tail flick latency in secs, Av (CD1 mice; 5 mg/kg, 15 min): 5.1 s
Tail flick (%MPE) (CD1 mice; 5 mg/kg, 15 min): 53 %MPE and 57 %MPE and 20 %MPE and 21 %MPE and 30 %MPE (2×) and 35 %MPE and 62 %MPE and 25 %MPE and 54 %MPE and 27 %MPE
Tail flick latency (CD1 mice; 5 mg/kg, 15 min): 6.3 secs and 6.7 secs and 3.5 secs and 4.2 secs (2×) and 4.9 secs (2×) and 4.3 secs and 7.0 secs and 4.0 secs and 6.6 secs
Tail flick (%MPE), average (CD1 mice; 5 mg/kg, 30 min): 32 %MPE
Tail flick latency in secs, Av (CD1 mice; 5 mg/kg, 30 min): 4.7 s
Tail flick (%MPE) (CD1 mice; 5 mg/kg, 30 min): 15 %MPE and 100 %MPE and 37 %MPE and 11 %MPE and 14 %MPE and 21 %MPE and 19 %MPE and 56 %MPE and 32 %MPE and 4 %MPE and 38 %MPE
Tail flick latency (CD1 mice; 5 mg/kg, 30 min): 3.4 secs (2×) and 10.0 secs and 4.9 secs and 3.8 secs and 3.6 secs (2×) and 6.4 secs and 4.6 secs and 2.9 secs and 5.1 secs
Tail flick (%MPE), average (CD1 mice; 5 mg/kg, 60 min): 13 %MPE
Tail flick latency in secs, Av (CD1 mice; 5 mg/kg, 60 min): 3.3 s
Tail flick (%MPE) (CD1 mice; 5 mg/kg, 60 min): 15 %MPE and 34 %MPE and 31 %MPE and -9 %MPE and -7.53 %MPE and 10 %MPE and 8 %MPE and 33 %MPE and 11 %MPE and 2.7 %MPE and 18 %MPE
Tail flick latency (CD1 mice; 5 mg/kg, 60 min): 3.4 secs and 4.9 secs and 4.4 secs and 1.9 secs and 2.2 secs and 2.7 secs and 2.8 secs (2×) and 4.6 secs and 2.9 secs and 3.5 secs
Tail flick (%MPE), average (CD1 mice; 5 mg/kg, 120 min): 15 %MPE
Tail flick latency in secs, Av (CD1 mice; 5 mg/kg, 120 min): 3.4 s
Tail flick (%MPE) (CD1 mice; 5 mg/kg, 120 min): 38 %MPE and 44 %MPE and 49 %MPE and -4 %MPE and -12 %MPE and 6 %MPE (2×) and 3.8 %MPE and -1.23 %MPE and 9 %MPE and 22 %MPE
Tail flick latency (CD1 mice; 5 mg/kg, 120 min): 5.2 secs and 5.7 secs and 5.9 secs and 2.3 secs (2×) and 1.8 secs (2×) and 2.4 secs and 2.5 secs and 3.3 secs and 3.8 secs
Tail flick (%MPE) (CD1 mice; Fig 9b, 5 mg/kg): 17.7 %MPE and 17.8 %MPE and 17.3 %MPE and 17.1 %MPE and 26.9 %MPE and 34.1 %MPE and 38.3 %MPE and 27.3 %MPE
Tail flick latency (CD1 mice; Fig 9b, 5 mg/kg): 3.5 s and 4.0 s and 3.3 s and 3.7 s and 4.3 s and 4.6 s and 5.0 s and 4.4 s
Tail flick latency in secs, mean (CD1 mice; Fig 9b, 5 mg/kg): 4.1 s
Tail flick (%MPE) (CD1 mice; Fig 9b, 10 mg/kg): 24.1 %MPE and 13.7 %MPE and 25.9 %MPE and 28.9 %MPE and 26.9 %MPE and 39.0 %MPE and 32.1 %MPE and 27.3 %MPE
Tail flick latency (CD1 mice; Fig 9b, 10 mg/kg): 4.0 secs (2×) and 3.7 secs and 4.6 secs and 4.3 secs and 5.0 secs and 4.5 secs and 4.4 secs
Tail flick latency in secs, mean (CD1 mice; Fig 9b, 10 mg/kg): 4.3 s
Tail flick (%MPE) (CD1 mice; Fig 9b, 25 mg/kg): 29.1 %MPE and 27.4 %MPE and 42.0 %MPE and 38.2 %MPE and 23.1 %MPE and 36.6 %MPE and 37.0 %MPE and 44.2 %MPE
Tail flick latency (CD1 mice; Fig 9b, 25 mg/kg): 4.4 secs and 4.7 secs and 5.3 secs (2×) and 4.0 secs and 4.8 secs and 4.9 secs and 5.7 secs
Tail flick latency in secs, mean (CD1 mice; Fig 9b, 25 mg/kg): 4.9 s
